# Key:
# L1210 [1] = test: Growth inhibition of L1210 cells in culture in the first 48 hours of exposure at a concentration of 1 x 10e-5 M; type: functional; conditions: Mus musculus, L1210, 48 h
# L1210 [2] = test: Growth inhibition of L1210 cells in culture in the first 48 hours of exposure at a concentration of 5 x 10e-5 M; type: functional; conditions: Mus musculus, L1210, 48 h
# L1210 [3] = test: Growth inhibition of L1210 cells in culture in the first 48 hours of exposure at a concentration of 5 x 10e-6 M; type: functional; conditions: Mus musculus, L1210, 48 h
# [4] = Ionization constant of the compound; type: physicochemical
structure (smiles),measurement,setting,value
Nn1ccn([C@@H]2O[C@H](CO)[C@@H](O)[C@H]2O)c(=O)c1=O,inhibition at 10 µM,L1210 [1],20%
same,inhibition at 50 µM,L1210 [2],25%
same,inhibition at 5 µM,L1210 [3],15%
same,pKa,[4],8.8
